Reference: PubChem BioAssay (NCI)
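Tested at 5 concentrations; 48 h exposure; 96-well plates; endpoints linearly interpolated, else capped at highest concentration. TGI denotes the concentration required for complete inhibition of growth.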

How the values were obtained:
Experiment in all cases: growth of human tumour cells (NCI), 48 h
[1] = system: NCI-H460 lung
[2] = system: A549 NSCLC
[3] = system: CCRF-CEM leukemia
[4] = system: UO-31 renal
[5] = system: SK-MEL-2 melanoma
[6] = system: HOP-92 NSCLC
[7] = system: K-562 leukemia
[8] = system: A498 renal
[9] = system: DU-145 prostate
[10] = system: SK-OV-3 ovarian
[11] = system: 786-0 renal
[12] = system: SF-295 CNS
[13] = system: MDA-MB-435
[14] = system: ACHN renal
[15] = system: RXF 393 renal
[16] = system: HCT-116 colon
[17] = system: BT-549 breast
[18] = system: HT29 colon
[19] = system: PC-3 prostate

SMILES	TGI [1]	TGI [2]	TGI [3]	TGI [4]	TGI [5]	TGI [6]	TGI [7]	TGI [8]	TGI [9]	TGI [10]	TGI [11]	TGI [12]	TGI [13]	TGI [14]	TGI [15]	TGI [16]	TGI [17]	TGI [18]	TGI [19]
O=C(O)CC(NC(=O)/C(=C/c1ccccc1)NC(=O)c1ccccc1)C(=O)O (stereo not drawn)	> 100 µM	> 100 µM	> 100 µM	> 100 µM	> 100 µM	> 100 µM	> 100 µM	> 100 µM	> 100 µM	> 100 µM	> 100 µM	> 100 µM	> 100 µM	> 100 µM	> 100 µM	> 100 µM	> 100 µM	> 100 µM	> 100 µM
CC(C)(C)C1CCC2c3c([nH]c4ccccc34)C3C(=O)N(c4ccccc4[N+](=O)[O-])C(=O)C3C2C1 (stereo not drawn)	27.6 µM	33.9 µM	53.1 µM	> 100 µM	35.6 µM	9.1 µM	27.8 µM	36.5 µM	22.4 µM	> 100 µM	28.9 µM	31.2 µM	> 100 µM	61.3 µM	19 µM	22.7 µM	68.5 µM	20.1 µM	26.1 µM
CC(=O)NCCCCN(CCCNC(C)=O)C(=O)CNS(=O)(=O)c1cccc2c(N(C)C)cccc12	> 100 µM	> 100 µM	> 100 µM	> 100 µM	> 100 µM	> 100 µM	> 100 µM	> 100 µM	> 100 µM	> 100 µM	> 100 µM	> 100 µM	> 100 µM	> 100 µM	> 100 µM	> 100 µM	> 100 µM	> 100 µM	> 100 µM
CON(C)C(=O)[C@H]1C[C@@]1(C)CO	> 100 µM	> 100 µM	> 100 µM	> 100 µM	> 100 µM	> 100 µM	> 100 µM	> 100 µM	> 100 µM	> 100 µM	> 100 µM	> 100 µM	> 100 µM	> 100 µM	> 100 µM	> 100 µM	> 100 µM	> 100 µM	> 100 µM
O=S1(=O)c2ccccc2C(Nc2ccccc2)N1c1ccccc1 (stereo not drawn)	> 100 µM	> 100 µM	> 100 µM	> 100 µM	> 100 µM	> 100 µM	> 100 µM	> 100 µM	> 100 µM	> 100 µM	> 100 µM	> 100 µM	> 100 µM	> 100 µM	> 100 µM	> 100 µM	> 100 µM	> 100 µM	> 100 µM
COC(=O)c1cc(=O)n(-c2ccc3nn(C)nc3c2)cc1C(=O)OC	> 100 µM	> 100 µM	> 100 µM	> 100 µM	> 100 µM	> 100 µM	> 100 µM	> 100 µM	> 100 µM	> 100 µM	> 100 µM	> 100 µM	> 100 µM	> 100 µM	> 100 µM	> 100 µM	> 100 µM	> 100 µM	> 100 µM
CC(C)(C)C1CCC2c3c([nH]c4ccccc34)C3C(=O)N(c4ccccc4Cl)C(=O)C3C2C1 (stereo not drawn)	15.8 µM	86.5 µM	> 100 µM	78.1 µM	35 µM	0.739 µM	> 100 µM	52.6 µM	42.7 µM	> 100 µM	27.7 µM	57.2 µM	> 100 µM	70.2 µM	33.3 µM	14.3 µM	61.6 µM	28.4 µM	28 µM
CCOC(=O)C1(C#N)C(=O)c2cc[n+](CC[n+]3ccc4c(c3)C(=O)C(C#N)(C(=O)OCC)C4=O)cc2C1=O (stereo not drawn)	> 100 µM	> 100 µM	> 100 µM	> 100 µM	> 100 µM	> 100 µM	> 100 µM	> 100 µM	> 100 µM	> 100 µM	> 100 µM	> 100 µM	> 100 µM	> 100 µM	> 100 µM	> 100 µM	> 100 µM	> 100 µM	> 100 µM
CCC/C(Cl)=N/OC(=O)Nc1cc(C(F)(F)F)ccc1OC	36.5 µM	34.6 µM	> 20.7 µM	29.9 µM	31.5 µM	6.56 µM	–	28.4 µM	30 µM	21.8 µM	18.6 µM	32.3 µM	26.3 µM	26.1 µM	18.3 µM	22.8 µM	28.8 µM	44.1 µM	29.7 µM
O=C1/C(=C/c2ccc(O)cc2)CCc2ccc([N+](=O)[O-])cc21	> 100 µM	> 100 µM	> 100 µM	> 81.6 µM	> 100 µM	> 89.6 µM	> 100 µM	> 100 µM	> 100 µM	> 100 µM	> 100 µM	> 100 µM	> 100 µM	> 100 µM	> 92.3 µM	> 100 µM	> 100 µM	> 100 µM	> 100 µM
N/N=C(\c1nc2ccc([N+](=O)[O-])cc2[nH]c1=O)C(O)c1ccc(Cl)c(Cl)c1 (stereo not drawn)	> 100 µM	> 100 µM	> 100 µM	> 100 µM	> 100 µM	> 100 µM	> 100 µM	> 100 µM	> 100 µM	> 100 µM	> 100 µM	> 100 µM	> 100 µM	> 100 µM	> 100 µM	> 100 µM	> 100 µM	> 100 µM	> 100 µM
